Source: patent US10435399B2, “HDAC6 inhibitory heterocyclic compound” (TAKEDA PHARMACEUTICAL COMPANY LIMITED, priority 2017, dated 2019)

target: T1, HDAC6 enzyme (Homo sapiens, UniProt Q9UBN7); experiment: HDAC6 enzyme inhibitory activity (HDAC-Glo I/II Assay kit); format: biochemical; conditions: 10 μM; wells without enzyme = 100% inhibition; read-out: HDAC6 inhibitory rate (%) (10 μM)
T1 construct: transducing full length HDAC6 gene into Sf-9 insect cells; GST; purchased SignalChem; host or cells: Sf-9 insect cells
T1 sequence (Q9UBN7 1-1215): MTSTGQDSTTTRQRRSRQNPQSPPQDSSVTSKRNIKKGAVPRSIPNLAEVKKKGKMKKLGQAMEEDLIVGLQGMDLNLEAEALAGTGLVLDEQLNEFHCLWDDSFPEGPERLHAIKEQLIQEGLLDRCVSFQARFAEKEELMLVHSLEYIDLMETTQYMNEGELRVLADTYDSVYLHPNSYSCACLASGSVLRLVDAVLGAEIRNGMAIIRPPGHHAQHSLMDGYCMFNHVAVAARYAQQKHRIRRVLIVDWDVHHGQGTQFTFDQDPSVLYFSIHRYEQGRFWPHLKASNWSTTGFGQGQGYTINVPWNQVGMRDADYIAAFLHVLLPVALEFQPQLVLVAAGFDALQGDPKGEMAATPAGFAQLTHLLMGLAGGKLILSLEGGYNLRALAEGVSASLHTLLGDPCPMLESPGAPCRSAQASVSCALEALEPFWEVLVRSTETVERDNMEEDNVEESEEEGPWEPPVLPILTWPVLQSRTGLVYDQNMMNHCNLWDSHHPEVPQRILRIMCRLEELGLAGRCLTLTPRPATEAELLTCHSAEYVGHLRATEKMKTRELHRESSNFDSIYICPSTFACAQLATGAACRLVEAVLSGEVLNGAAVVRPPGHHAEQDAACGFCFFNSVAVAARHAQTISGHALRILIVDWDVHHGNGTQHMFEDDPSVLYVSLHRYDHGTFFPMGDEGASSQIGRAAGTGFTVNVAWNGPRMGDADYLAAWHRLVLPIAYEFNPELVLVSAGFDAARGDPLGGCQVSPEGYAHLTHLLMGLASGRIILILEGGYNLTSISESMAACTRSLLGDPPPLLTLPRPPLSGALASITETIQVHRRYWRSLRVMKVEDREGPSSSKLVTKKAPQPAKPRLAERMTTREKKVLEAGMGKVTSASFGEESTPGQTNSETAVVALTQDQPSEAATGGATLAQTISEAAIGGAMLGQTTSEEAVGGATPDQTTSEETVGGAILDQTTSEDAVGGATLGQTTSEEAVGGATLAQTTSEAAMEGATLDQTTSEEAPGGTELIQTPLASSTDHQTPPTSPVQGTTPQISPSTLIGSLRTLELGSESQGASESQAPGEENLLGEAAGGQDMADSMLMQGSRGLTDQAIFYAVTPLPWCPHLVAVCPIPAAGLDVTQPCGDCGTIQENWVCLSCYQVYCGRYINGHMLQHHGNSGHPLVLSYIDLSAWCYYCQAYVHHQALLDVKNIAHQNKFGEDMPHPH
Procedure, shortened: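 Inhibition is calculated as relative activity, taking luminescence in enzyme-free wells as complete inhibition. The enzyme, full-length and GST-purified after Sf-9 expression, was exposed to compound for 60 min at room temperature before a 20 min HDAC-Glo reaction.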

| Structure (SMILES) | inhibition at 10 µM |
| --- | --- |
| COC(C)(C)C(=O)N[C@@H]1CCCC[C@H]1N1Cc2ccc(-c3nnc(C(F)F)o3)cc2C1=O [Example 85, N-((1R,2R)-2-(6-(5-(difluoromethyl)-1,3,4-oxadiazol-2-yl)-1-oxo-1,3-dihydro-2H-isoindol-2-yl)cyclohexyl)-2-methoxy-2-methylpropanamide] | 101% |
| N#CC1(CC(=O)N[C@@H]2CCCC[C@H]2N2Cc3ccc(-c4nnc(C(F)F)o4)cc3C2=O)CC1 [Example 86, 2-(1-cyanocyclopropyl)-N-((1R,2R)-2-(6-(5-(difluoromethyl)-1,3,4-oxadiazol-2-yl)-1-oxo-1,3-dihydro-2H-isoindol-2-yl)cyclohexyl)acetamide] | 96% |
| O=C1c2cc(-c3nnc(C(F)F)o3)ccc2CN1[C@@H]1CCCC[C@H]1NC(=O)C1(c2ccccc2)CC1 [Example 87, N-((1R,2R)-2-(6-(5-(difluoromethyl)-1,3,4-oxadiazol-2-yl)-1-oxo-1,3-dihydro-2H-isoindol-2-yl)cyclohexyl)-1-phenylcyclopropanecarboxamide] | 99% |
| CC(C)(C(=O)N[C@@H]1CCCC[C@H]1N1Cc2ccc(-c3nnc(C(F)F)o3)cc2C1=O)c1ccccc1 [Example 88, N-((1R,2R)-2-(6-(5-(difluoromethyl)-1,3,4-oxadiazol-2-yl)-1-oxo-1,3-dihydro-2H-isoindol-2-yl)cyclohexyl)-2-methyl-2-phenylpropanamide] | 99% |
| O=C1c2cc(-c3nnc(C(F)F)o3)ccc2CN1[C@@H]1CCCC[C@H]1NC(=O)C1(c2ccccc2)CCC1 [Example 89, N-((1R,2R)-2-(6-(5-(difluoromethyl)-1,3,4-oxadiazol-2-yl)-1-oxo-1,3-dihydro-2H-isoindol-2-yl)cyclohexyl)-1-phenylcyclobutanecarboxamide] | 100% |
| O=C1c2cc(-c3nnc(C(F)F)o3)ccc2CN1[C@@H]1CCCC[C@H]1NC(=O)C1(c2ccccc2)COC1 [Example 90, N-((1R,2R)-2-(6-(5-(difluoromethyl)-1,3,4-oxadiazol-2-yl)-1-oxo-1,3-dihydro-2H-isoindol-2-yl)cyclohexyl)-3-phenyloxetane-3-carboxamide] | 100% |
| O=C(N[C@@H]1CCCC[C@H]1N1Cc2ccc(-c3nnc(C(F)F)o3)cc2C1=O)C1COC1 [Example 91, N-((1R,2R)-2-(6-(5-(difluoromethyl)-1,3,4-oxadiazol-2-yl)-1-oxo-1,3-dihydro-2H-isoindol-2-yl)cyclohexyl)oxetane-3-carboxamide] | 100% |
| CCC1(C(=O)N[C@@H]2CCCC[C@H]2N2Cc3ccc(-c4nnc(C(F)F)o4)cc3C2=O)COC1 [Example 92, N-((1R,2R)-2-(6-(5-(difluoromethyl)-1,3,4-oxadiazol-2-yl)-1-oxo-1,3-dihydro-2H-isoindol-2-yl)cyclohexyl)-3-ethyloxetane-3-carboxamide] | 101% |
| O=C(N[C@@H]1CCCC[C@H]1N1Cc2ccc(-c3nnc(C(F)F)o3)cc2C1=O)[C@@H]1CCCO1 [Example 93, (2S)-N-((1R,2R)-2-(6-(5-(difluoromethyl)-1,3,4-oxadiazol-2-yl)-1-oxo-1,3-dihydro-2H-isoindol-2-yl)cyclohexyl)tetrahydrofuran-2-carboxamide] | 100% |

Results, then the compound that gave them:

| inhibition at 10 µM | Structure (SMILES) |
| --- | --- |
| 100% | O=C(N[C@@H]1CCCC[C@H]1N1Cc2ccc(-c3nnc(C(F)F)o3)cc2C1=O)[C@@H]1CCOC1 [Example 94] |
| 96% | O=C(N[C@@H]1CCCC[C@H]1N1Cc2ccc(-c3nnc(C(F)F)o3)cc2C1=O)C1CCOCC1 [Example 95, N-((1R,2R)-2-(6-(5-(difluoromethyl)-1,3,4-oxadiazol-2-yl)-1-oxo-1,3-dihydro-2H-isoindol-2-yl)cyclohexyl)tetrahydro-2H-pyran-4-carboxamide] |
| 98% | Cn1cncc1C(=O)N[C@@H]1CCCC[C@H]1N1Cc2ccc(-c3nnc(C(F)F)o3)cc2C1=O [Example 96, N-((1R,2R)-2-(6-(5-(difluoromethyl)-1,3,4-oxadiazol-2-yl)-1-oxo-1,3-dihydro-2H-isoindol-2-yl)cyclohexyl)-1-methyl-1H-imidazole-5-carboxamide] |
| 100% | Cn1cc(C(=O)N[C@@H]2CCCC[C@H]2N2Cc3ccc(-c4nnc(C(F)F)o4)cc3C2=O)cn1 [Example 97, N-((1R,2R)-2-(6-(5-(difluoromethyl)-1,3,4-oxadiazol-2-yl)-1-oxo-1,3-dihydro-2H-isoindol-2-yl)cyclohexyl)-1-methyl-1H-pyrazole-4-carboxamide] |
| 101% | O=C(N[C@@H]1CCCC[C@H]1N1Cc2ccc(-c3nnc(C(F)F)o3)cc2C1=O)c1ccccc1 [Example 98, N-((1R,2R)-2-(6-(5-(difluoromethyl)-1,3,4-oxadiazol-2-yl)-1-oxo-1,3-dihydro-2H-isoindol-2-yl)cyclohexyl)benzamide] |
| 100% | O=C(N[C@@H]1CCCC[C@H]1N1Cc2ccc(-c3nnc(C(F)F)o3)cc2C1=O)c1ccccc1Cl [Example 99, 2-chloro-N-((1R,2R)-2-(6-(5-(difluoromethyl)-1,3,4-oxadiazol-2-yl)-1-oxo-1,3-dihydro-2H-isoindol-2-yl)cyclohexyl)benzamide] |
| 100% | O=C(N[C@@H]1CCCC[C@H]1N1Cc2ccc(-c3nnc(C(F)F)o3)cc2C1=O)c1cccc(Cl)c1 [Example 100, 3-chloro-N-((1R,2R)-2-(6-(5-(difluoromethyl)-1,3,4-oxadiazol-2-yl)-1-oxo-1,3-dihydro-2H-isoindol-2-yl)cyclohexyl)benzamide] |
| 99% | O=C(N[C@@H]1CCCC[C@H]1N1Cc2ccc(-c3nnc(C(F)F)o3)cc2C1=O)c1ccc(Cl)cc1 [Example 101, 4-chloro-N-((1R,2R)-2-(6-(5-(difluoromethyl)-1,3,4-oxadiazol-2-yl)-1-oxo-1,3-dihydro-2H-isoindol-2-yl)cyclohexyl)benzamide] |
| 96% | O=C(N[C@@H]1CCCC[C@H]1N1Cc2ccc(-c3nnc(C(F)F)o3)cc2C1=O)C1CCC(F)(F)CC1 [Example 102, N-((1R,2R)-2-(6-(5-(difluoromethyl)-1,3,4-oxadiazol-2-yl)-1-oxo-1,3-dihydro-2H-isoindol-2-yl)cyclohexyl)-4,4-difluorocyclohexanecarboxamide] |
| 98% | C[C@](O)(C(=O)N[C@@H]1CCCC[C@H]1N1Cc2ccc(-c3nnc(C(F)F)o3)cc2C1=O)C(F)(F)F [Example 103, (2S)-N-((1R,2R)-2-(6-(5-(difluoromethyl)-1,3,4-oxadiazol-2-yl)-1-oxo-1,3-dihydro-2H-isoindol-2-yl)cyclohexyl)-3,3,3-trifluoro-2-hydroxy-2-methylpropanamide] |
| 97% | C[C@@](O)(C(=O)N[C@@H]1CCCC[C@H]1N1Cc2ccc(-c3nnc(C(F)F)o3)cc2C1=O)C(F)(F)F [Example 104, (2R)-N-((1R,2R)-2-(6-(5-(difluoromethyl)-1,3,4-oxadiazol-2-yl)-1-oxo-1,3-dihydro-2H-isoindol-2-yl)cyclohexyl)-3,3,3-trifluoro-2-hydroxy-2-methylpropanamide] |
| 98% | O=C(N[C@@H]1CCCC[C@H]1N1Cc2ccc(-c3nnc(C(F)F)o3)cc2C1=O)c1ccccn1 [Example 105, N-((1R,2R)-2-(6-(5-(difluoromethyl)-1,3,4-oxadiazol-2-yl)-1-oxo-1,3-dihydro-2H-isoindol-2-yl)cyclohexyl)pyridine-2-carboxamide] |
| 99% | CC(C)(F)C(=O)N[C@@H]1CCCC[C@H]1N1Cc2ccc(-c3nnc(C(F)F)o3)cc2C1=O [Example 106, N-((1R,2R)-2-(6-(5-(difluoromethyl)-1,3,4-oxadiazol-2-yl)-1-oxo-1,3-dihydro-2H-isoindol-2-yl)cyclohexyl)-2-fluoro-2-methylpropanamide] |
| 102% | CCCCCCC(=O)N[C@@H]1CCCC[C@H]1N1Cc2ccc(-c3nnc(C(F)F)o3)cc2C1=O [Example 107, N-((1R,2R)-2-(6-(5-(difluoromethyl)-1,3,4-oxadiazol-2-yl)-1-oxo-1,3-dihydro-2H-isoindol-2-yl)cyclohexyl)heptanamide] |
